Results taken from US6177438A, “Morphinan derivatives and pharmaceutical use thereof” (priority 1993, dated 2001).
Where a name gives a salt, the structure may show the parent alone.

Columns and labels:
[1] = tested on: cultured nerve cells (cerebral cortex); conditions: 10 mM glutamic acid, 24 hours
[2] = tested on: extracted mouse vas deferens preparation; test: Opioid activity test using an extracted mouse vas deferens preparation (suppression of electrically induced contractions); set-up: species or system male ddy mouse; conditions: electrical stimulus 0.1 Hz, 37° C.
Outline: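 Male ddY mouse vas deferens in Krebs-Henseleit at 37° C, 5% CO2/95% O2, field-stimulated at 0.1 Hz, 5.0 ms; isometric contractions recorded. After adding naloxone, NTI or norBNI, test compound was added cumulatively after ~20 min; Ke derived from the difference in agonist efficacies.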

κ receptor [3] = target: T1, κ receptor (Mus musculus, UniProt P33534); test: Opioid activity test using an extracted mouse vas deferens preparation, Ke with norBNI; set-up: species or system male ddy mouse; conditions: for receptor selectivity of agonist (κ): in words; for Ke, norBNI: κ, norBNI added
T1 construct: from tissue; host or cells: mouse (male ddy) vas deferens
T1 sequence (P33534 whole entry): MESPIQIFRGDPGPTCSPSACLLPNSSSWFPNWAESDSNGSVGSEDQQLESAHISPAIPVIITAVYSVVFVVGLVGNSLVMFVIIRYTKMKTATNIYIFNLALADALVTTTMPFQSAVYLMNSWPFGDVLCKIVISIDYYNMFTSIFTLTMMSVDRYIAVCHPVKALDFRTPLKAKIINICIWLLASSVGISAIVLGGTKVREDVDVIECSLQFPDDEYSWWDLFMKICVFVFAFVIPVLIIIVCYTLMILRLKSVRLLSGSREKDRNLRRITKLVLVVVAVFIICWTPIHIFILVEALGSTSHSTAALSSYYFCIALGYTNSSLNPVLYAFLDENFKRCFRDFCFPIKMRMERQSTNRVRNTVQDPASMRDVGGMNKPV

[4] = Diuretic action (urine output for 5 hours after physiological saline loading in rats); type: in vivo, male Wistar rats; conditions: Rattus norvegicus, sc, 5 hours after saline 20 ml/kg p.o.; for ED (200% urine output): dose giving urine output of 200 (non-dosed group = 100); for ED (500% urine output): dose giving urine output of 500 (non-dosed group = 100)
Outline: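 Doses reported as ED200/ED500, i.e. those raising 5 h urine output to 200 or 500 versus undosed rats set at 100. Subcutaneous dosing preceded an oral 20 ml/kg saline load by 30 min; male Wistar rats, 7-8 weeks, deprived of water 1 h beforehand.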

μ receptor [5] = test: Opioid activity test using an extracted guinea pig ileum preparation, Ke with naloxone; set-up: species or system male Hartley guinea pig; conditions: naloxone added
Method: (§1) A male Hartley guinea pig was used in this test. After sacrificing the guinea pig and extracting the ileum, the lumen was washed with nutrient solution and only the longitudinal muscle was isolated. This longitudinal muscle was suspended in a Magnus tube filled with Krebes-Henseleit solution (NaCl 118 mM; KCl 4.7 mM; CaCl2 2.5 mM; KH2 PO4 1.2 mM; NaHCO3 25 mM; MgSO4 1.2 mM; Glucose 10 mM) warmed to 37° C. and ventilated with 5% carbon dioxide and 95% oxygen. Electrical stimulus was performed at 0.1 Hz for 5.0 ms by means of ring-shaped platinum electrodes located above and below. Tissue contractions were recorded on a polygraph using an isometric transducer.
(§2) After adequately washing with nutrient solution and the contraction reaction stabilized, the μ agonist, naloxone, or the κ agonist, norBNI, was added after which the test compound was again cumulatively added after roughly 20 minutes. The Ke value was calculated using the following calculation formula from the difference in the efficacies of both agonists.
(§3) Ke=[Conc. of added agonist]/(IC50 ratio-1)
(§4) IC50 ratio=IC50 in the presence of agonist/IC50 in the absence of agonist

κ receptor [6] = target: T2, κ receptor (Cavia porcellus, UniProt P41144); test: Opioid activity test using an extracted guinea pig ileum preparation, Ke with norBNI; set-up: species or system male Hartley guinea pig; conditions: norBNI added
T2 construct: After sacrificing the guinea pig and extracting the ileum; from tissue; host or cells: guinea pig (male Hartley) ileum, longitudinal muscle
T2 sequence (P41144 whole entry): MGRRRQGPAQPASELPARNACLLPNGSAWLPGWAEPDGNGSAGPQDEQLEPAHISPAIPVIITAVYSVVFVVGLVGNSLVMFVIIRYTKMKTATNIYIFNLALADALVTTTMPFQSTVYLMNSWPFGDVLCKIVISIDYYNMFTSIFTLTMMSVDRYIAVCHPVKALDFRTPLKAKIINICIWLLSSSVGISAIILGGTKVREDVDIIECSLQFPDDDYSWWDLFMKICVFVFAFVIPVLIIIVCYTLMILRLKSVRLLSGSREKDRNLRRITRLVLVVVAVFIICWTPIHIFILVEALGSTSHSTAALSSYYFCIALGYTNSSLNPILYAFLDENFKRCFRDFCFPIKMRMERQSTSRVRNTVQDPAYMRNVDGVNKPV
Method: as §1, §2, §3, §4

[7] = tested on: extracted guinea pig ileum preparation; test: Opioid activity test using an extracted guinea pig ileum preparation (suppression of electrically induced contractions); set-up: species or system male Hartley guinea pig; conditions: Cavia porcellus, electrical stimulus 0.1 Hz, 37° C.
Method: as §1, §2

[8] = tested on: acetic acid-induced writhing in ddy mice; test: animal or person; type: in vivo, 5 week old ddy mice; conditions: Mus musculus, sc, s.c. 15 minutes before acetic acid, read-out: ED50
Method: 5 week old ddy mice were used in this test. After intraperitoneal administration of 0.1 ml of 0.6% aqueous acetic acid per 10 g of body weight, the number of writhing reactions that occurred in 10 minutes starting 10 minutes after administration was evaluated for the indicator. The test drug was administered subcutaneously into the backs of the animals 15 minutes before administration of acetic acid.

δ receptor = target: T3, δ receptor (Mus musculus, UniProt P32300); set-up: species or system male ddy mouse; conditions: mouse vas deferens, δ, NTI added
T3 construct: The vas deferens extracted from the animal was suspended in a Magnus tube; from tissue; host or cells: mouse (male ddy) vas deferens
T3 sequence (P32300 whole entry): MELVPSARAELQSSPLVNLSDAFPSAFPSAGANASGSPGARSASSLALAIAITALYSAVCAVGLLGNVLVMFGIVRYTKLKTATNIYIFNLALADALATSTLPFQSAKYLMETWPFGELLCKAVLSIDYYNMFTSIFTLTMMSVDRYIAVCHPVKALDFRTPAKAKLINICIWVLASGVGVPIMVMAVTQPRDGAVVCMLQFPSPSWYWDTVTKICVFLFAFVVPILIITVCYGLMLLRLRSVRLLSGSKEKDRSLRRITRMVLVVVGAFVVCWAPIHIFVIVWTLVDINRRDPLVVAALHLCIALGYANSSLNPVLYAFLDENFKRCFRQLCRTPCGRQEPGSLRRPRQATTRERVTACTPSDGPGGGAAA

[9] = tested on: cultured nerve cells (cerebral cortex); test: cells; conditions: Rattus norvegicus, Cerebral cortex neuron, 24 h, read-out: ED50 (protection against glutamic acid toxicity)
μ receptor [10] = target: T4, μ receptor (Mus musculus, UniProt P42866); test: Opioid activity test using an extracted mouse vas deferens preparation, Ke with naloxone; set-up: species or system male ddy mouse; conditions: naloxone added
T4 construct: naloxone as mu antagonist (printed 'agonist')
T4 sequence (P42866 whole entry): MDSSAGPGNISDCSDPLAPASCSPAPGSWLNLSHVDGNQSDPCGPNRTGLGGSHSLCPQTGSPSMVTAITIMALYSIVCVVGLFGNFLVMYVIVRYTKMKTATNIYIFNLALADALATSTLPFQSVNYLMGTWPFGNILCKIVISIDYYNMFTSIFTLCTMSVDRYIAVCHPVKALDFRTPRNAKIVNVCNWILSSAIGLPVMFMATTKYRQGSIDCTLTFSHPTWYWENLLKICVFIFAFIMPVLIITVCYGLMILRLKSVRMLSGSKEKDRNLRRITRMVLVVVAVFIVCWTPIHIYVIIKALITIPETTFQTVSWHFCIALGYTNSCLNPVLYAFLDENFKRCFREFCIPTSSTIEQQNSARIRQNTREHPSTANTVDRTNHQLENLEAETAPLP

[11] = tested on: guinea pig respiratory tract; test: Antitussive action using the guinea pig respiratory tract stimulation method; type: in vivo, male Hartley guinea pigs; conditions: for ED50: Cavia porcellus, sc; for No. of Animals in which Coughing was Suppressed/No. of Animals Tested: s.c.
Method: Evaluation of Antitussive Action Using the Guinea Pig Respiratory Tract Stimulation Method
Male Hartley guinea pigs having body weights of 330-380 g were used in this test in groups of 5 animals each. The animals were immobilized in the supine position under mild anesthesia by intraperitoneal administration of 15 mg/kg of sodium pentobarbital. An incision was made in the necks of the animals to expose the respiratory tract. A small hole was opened in the exposed respiratory tract, and stimulating hairs were inserted to a depth of roughly 3 cm and at an angle of 30 degrees to the respiratory tract through the opened hole to provide a stimulus to the inner wall of the respiratory tract. The animals were then examined for the presence of coughing. […] The test drug was administered subcutaneously, and stimuli were provided two times each 15, 30, 60 and 120 minutes after administration.

[12] = tested on: nerve cells in the region of the hippocampus CA1; test: Delayed neuronal death protective action (gerbil transient ischemia model, hippocampus CA1 nerve cell count); type: in vivo, gerbils; conditions: s.c.; for No. of Residual Nerve Cells: 1 week after ligation; for Suppression of defluxion of brain nerve cells caused by ischemia / cerebro-neuroprotective activity (in words): gerbils
Method: Those compounds that provide protection from and suppress delayed neuronal death described in Example 238 are considered to be promising as preventive and therapeutic agents for ischemic brain disorders, brain nerve cell disorders and dementia, which are problems that the present invention is attempting to solve. The pharmacological activity of the compounds of the present invention was evaluated in the manner below using gerbils for the animal model.
A midline incision was made in gerbils having body weights of 50-70 g under ether anesthesia. Blood flow through the carotid arteries on both sides was interrupted to create an ischemic state by ligating the vessels for 5 minutes. The test compound was administered subcutaneously either 30 minutes or 1 hour prior to ligation ischemia, and the rectal temperature of the animals was controlled to 37±2° C. using a heating pad or heater starting 5 minutes before to 30 minutes after ligation ischemia. 1 week after ligation, 4% neutral buffered formalin was perfused from the heart throughout the body followed by extraction of the brain. After post-fixing the extracted brain in the same solution, the tissue was prepared into sections after embedding in paraffin. The sections were stained with hematoxylin and eosin stain, and the number of nerve cells in the region of the hippocampus CA1 over a width of 1 mm to the left and right was counted. The total number of nerve cells on the right and left sides was then used for evaluation.

Structure (SMILES)	Protective action against cytotoxicity caused by glutamic acid (in words) [1]	IC50 [2]	receptor selectivity of agonist (κ) (κ receptor [3])	Ke, norBNI (κ receptor [3])	ED (200% urine output) [4]	ED (500% urine output) [4]	ED50 [8]	Ke, NTI (δ receptor)	EC50 [9]	Ke, Naloxone (μ receptor [10])	ED50 [11]	No. of Animals in which Coughing was Suppressed/No. of Animals Tested ([11]; 1 μg/kg)	No. of Animals in which Coughing was Suppressed/No. of Animals Tested ([11]; 3 μg/kg)	No. of Animals in which Coughing was Suppressed/No. of Animals Tested ([11]; 30 μg/kg)	Suppression of defluxion of brain nerve cells caused by ischemia / cerebro-neuroprotective activity (in words) [12]	other results
CN(C(=O)Cc1ccc(Cl)c(Cl)c1)[C@H]1CC[C@@]2(O)[C@H]3Cc4ccc(O)c5c4[C@@]2(CCN3CC2CC2)[C@H]1O5 [Compound 1, 17-cyclopropylmethyl-4,5α-epoxy-3,14β-dihydroxy-6α-(N-methyl-3,4-dichlorophenylacetamido)morphinan]	clearly demonstrated action that protects nerve cells from cytotoxicity caused by glutamic acid	0.395 nM	selective agonists for κ receptors	0.548 nM	0.0027 mg/kg	0.0457 mg/kg	0.017 mg/kg	17.3 nM	500 nM	53 nM						Ke, Naloxone (μ receptor [5]): 650 nM; Ke, norBNI (κ receptor [6]): 0.16 nM; IC50 [7]: 0.026 nM
CN(C(=O)/C=C/c1cccc(C(F)(F)F)c1)[C@@H]1CC[C@@]2(O)[C@H]3Cc4ccc(O)c5c4[C@@]2(CCN3CC2CC2)[C@H]1O5 [Compound 60, 17-cyclopropylmethyl-3,14β-dihydroxy-4,5α-epoxy-6β-(N-methyl-3-trifluoromethylcinnamamido)morphinan.cndot.tartrate]	clearly demonstrated action that protects nerve cells from cytotoxicity caused by glutamic acid	0.468 nM	selective agonists for κ receptors	3.20 nM	0.0143 mg/kg	1.13 mg/kg	0.0046 mg/kg	291 nM	1310 nM		0.0026 mg/kg	1/5	3/5	5/5	significantly suppress defluxion of brain nerve cells caused by ischemia	No. of Residual Nerve Cells ([12]; 0.03 mg/kg, 1 hour before ischemia): 52.1 ± 14.8; No. of Residual Nerve Cells ([12]; 0.3 mg/kg, 1 hour before ischemia): 148.3 ± 28.5; No. of Residual Nerve Cells ([12]; 3 mg/kg, 1 hour before ischemia): 284.5 ± 7.1
Cc1cccc(/C=C/C(=O)N(C)[C@@H]2CC[C@@]3(O)[C@H]4Cc5ccc(O)c6c5[C@@]3(CCN4CC3CC3)[C@H]2O6)c1 [Compound 69, 17-cyclopropylmethyl-3,14β-dihydroxy-4,5α-epoxy-6β-(N-methyl-3-methylcinnamamido)morphinan.cndot.hydrochloride]		0.32 nM	selective agonists for κ receptors	1.95 nM			0.0049 mg/kg	64.5 nM		1780 nM	0.0125 mg/kg	1/5	1/5	4/5	significantly suppress defluxion of brain nerve cells caused by ischemia	No. of Residual Nerve Cells ([12]; 0.03 mg/kg, 30 minutes before ischemia): 12.4 ± 3.0; No. of Residual Nerve Cells ([12]; 0.3 mg/kg, 30 minutes before ischemia): 43.3 ± 19.1; No. of Residual Nerve Cells ([12]; 3 mg/kg, 30 minutes before ischemia): 178.3 ± 30.4
